We go through five compounds from patent publication US20030162765A1, “2-amino-6-(2-substituted-4-phenoxy)-substituted-pyridines” (Pfizer Inc., priority 1997, published 2003).

Where a name gives a salt, the structure may show the parent alone. Where only a bound is given, the exact number is not on record here.

Turning to `COc1cc(-c2cccc(N)n2)ccc1OCCN(C)C` (as salt: hydrochloride) [Example 6, 6-[4-(2-Dimethylamino-ethoxy)-3-methoxy-phenyl]-pyridin-2-ylamine], the melting point (commonly the temperature, or range, at which the solid turns liquid) fell in the range of 225 to 228 °C.
Next, `COc1cc(-c2cccc(N)n2)ccc1OCCN1CCN(CCc2ccccc2)CC1` (as salt: hydrochloride) [Example 9, 6-{3-methoxy-4-[2-(4-phenethyl-piperazin-1-yl)-ethoxy]-phenyl}-pyridin-2-ylamine]: 167 to 182 °C.
`CCOc1cc(-c2cccc(N)n2)ccc1OCCN(C)C` (as salt: hydrochloride) [Example 12, 6-[4-(2-Dimethylamino-ethoxy)-3-ethoxy-phenyl]-pyridin-2-ylamine] came in with a melting point of 210 to 216 °C.
On to `Cc1cc(-c2cccc(N)n2)c(C)cc1OCCN(C)C` (as salt: hydrochloride) [Example 110, 6-[4-(2-dimethylamino-ethoxy)-2,5-dimethyl-phenyl]-pyridin-2-ylamine], for which the melting point was 205 to 209 °C.
For the compound `Cc1cc(-c2cccc(N)n2)c(C)cc1OCCN1CCN(CCc2ccccc2)CC1` (as salt: hydrochloride) [Example 111, 6-[4-(2-(4-Phenethylpiperazin-1-yl)-ethoxy)-2,5-dimethyl-phenyl]-pyridin-2-ylamine], the melting point was greater than 220 °C.
